Experimental data published in patent publication US12492193B2, “Pyrazole derivatives for the treatment of cystic fibrosis” (Fondazione Istituto Italiano Di Tecnologia, priority 2017, dated 2025).

Biological target: T1, mutant CFTR (Homo sapiens, UniProt P13569, DEL508-508)
T1 construct: expressed in transfected cells
Test: Fluorescence (HS-YFP) assay for CFTR activity, corrector assay
Format: cell-based
Conditions: CFBE41o- and FRT cells with stable expression of mutant CFTR, 24 h compound treatment
Procedure, shortened: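 Corrector activity: 24 h compound treatment of HS-YFP/mutant-CFTR CFBE41o- or FRT cells, followed by 30 min forskolin 20 μM + genistein 50 μM at 37° C. Iodide influx (100 mM final) was tracked as fluorescence quenching, with dF/dt extrapolated by exponential fitting; EC50 values derived.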

T1 sequence (P13569 with tags, fused parts or gaps DEL508-508): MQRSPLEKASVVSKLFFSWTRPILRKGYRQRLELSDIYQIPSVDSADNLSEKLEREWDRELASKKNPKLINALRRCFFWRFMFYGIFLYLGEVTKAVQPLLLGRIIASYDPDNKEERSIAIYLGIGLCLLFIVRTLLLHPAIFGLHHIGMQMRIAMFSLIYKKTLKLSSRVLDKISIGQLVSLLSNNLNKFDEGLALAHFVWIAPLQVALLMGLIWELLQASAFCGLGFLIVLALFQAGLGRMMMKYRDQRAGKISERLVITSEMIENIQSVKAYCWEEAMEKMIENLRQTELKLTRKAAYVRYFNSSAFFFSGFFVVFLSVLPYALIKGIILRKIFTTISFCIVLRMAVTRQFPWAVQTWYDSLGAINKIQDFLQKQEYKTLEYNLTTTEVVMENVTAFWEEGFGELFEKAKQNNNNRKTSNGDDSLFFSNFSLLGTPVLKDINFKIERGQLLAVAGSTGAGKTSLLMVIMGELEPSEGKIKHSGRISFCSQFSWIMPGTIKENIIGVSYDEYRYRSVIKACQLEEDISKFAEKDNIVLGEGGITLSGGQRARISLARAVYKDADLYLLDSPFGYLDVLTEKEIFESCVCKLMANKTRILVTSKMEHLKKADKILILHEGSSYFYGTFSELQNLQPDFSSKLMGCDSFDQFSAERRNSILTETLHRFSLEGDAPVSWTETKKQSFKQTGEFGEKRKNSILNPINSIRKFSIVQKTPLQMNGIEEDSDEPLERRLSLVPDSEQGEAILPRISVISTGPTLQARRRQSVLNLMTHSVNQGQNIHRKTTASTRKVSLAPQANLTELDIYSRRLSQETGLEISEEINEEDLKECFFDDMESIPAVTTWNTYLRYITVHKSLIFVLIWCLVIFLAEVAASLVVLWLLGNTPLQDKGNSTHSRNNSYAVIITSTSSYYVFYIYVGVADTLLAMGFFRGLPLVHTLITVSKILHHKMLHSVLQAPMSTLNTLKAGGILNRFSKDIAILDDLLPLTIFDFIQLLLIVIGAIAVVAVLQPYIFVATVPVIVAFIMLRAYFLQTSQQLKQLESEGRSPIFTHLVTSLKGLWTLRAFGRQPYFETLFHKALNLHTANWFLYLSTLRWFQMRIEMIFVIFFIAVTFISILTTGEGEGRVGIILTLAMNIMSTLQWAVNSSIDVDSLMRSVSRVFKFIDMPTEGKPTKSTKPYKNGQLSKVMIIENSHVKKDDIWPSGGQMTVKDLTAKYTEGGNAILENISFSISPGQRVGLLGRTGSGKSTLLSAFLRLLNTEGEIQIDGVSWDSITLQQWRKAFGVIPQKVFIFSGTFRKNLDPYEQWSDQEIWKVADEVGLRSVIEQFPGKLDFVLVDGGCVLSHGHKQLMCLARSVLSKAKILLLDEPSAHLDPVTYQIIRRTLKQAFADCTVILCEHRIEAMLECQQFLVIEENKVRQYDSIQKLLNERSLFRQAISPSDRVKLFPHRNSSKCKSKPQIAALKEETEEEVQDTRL

EC50 [µM] | Compound
1 to 2 | CN(C(=O)c1cccc(-n2nc(-c3cccnc3)cc2C(F)(F)F)c1)c1ccc2c(c1)OCO2 [compound 194, N-(1,3-Benzodioxol-5-yl)-N-methyl-3-[3-(3-pyridyl)-5-(trifluoromethyl)pyrazol-1-yl]benzamide]
1 to 2 | Cc1cc(C(F)(F)F)nn1-c1cccc(S(=O)(=O)N(C)c2ccc3c(c2)OCO3)c1 [compound 204, N-(1,3-Benzodioxol-5-yl)-N-methyl-3-[5-methyl-3-(trifluoromethyl)pyrazol-1-yl]benzenesulfonamide]
1 to 2 | Cc1c(Cl)c(C(F)(F)F)nn1-c1cccc(C(=O)N(C)c2cc3c(cc2CO)OCO3)c1 [compound 168, 3-[4-chloro-5-methyl-3-(trifluoromethyl)pyrazol-1-yl]-N-[6-(hydroxymethyl)-1,3-benzodioxol-5-yl]-N-methyl-benzamide]
> 2 | COc1nc2cc(N(C)C(=O)c3cccc(-n4nc(C)c(Cl)c4C)c3)ccc2o1 [compound 064, 3-(4-Chloro-3,5-dimethyl-pyrazol-1-yl)-N-(2-methoxy-1,3-benzoxazol-5-yl)-N-methyl-benzamide]
> 2 | COc1ccc(N(C)C(=O)c2cccc(-n3nc(C)c(Cl)c3C)c2)cn1 [compound 021, 3-(4-Chloro-3,5-dimethyl-pyrazol-1-yl)-N-(6-methoxy-3-pyridyl)-N-methyl-benzamide]
< 1 | CN(C(=O)c1cccc(-n2nc(C(F)(F)F)c(Cl)c2OCc2ccc(C(=O)OC(C)(C)C)cc2)c1)c1ccc2c(c1)OC(F)(F)O2 [compound 201, Tert-butyl 4-[[4-chloro-2-[3-[(2,2-difluoro-1,3-benzodioxol-5-yl)-methyl-carbamoyl]phenyl]-5-(trifluoromethyl)pyrazol-3-yl]oxymethyl]benzoate]
< 1 | CN(C(=O)c1cccc(-n2nc(C(F)(F)F)cc2OC2CCC(C(=O)O)CC2)c1)c1ccc2c(c1)OCO2 (mixture of isomers) [compound 215, 4-[2-[3-[1,3-benzodioxol-5-yl(methyl)carbamoyl]phenyl]-5-(trifluoromethyl)pyrazol-3-yl]oxycyclohexane carboxylic acid]
1 to 2 | CCN(C(=O)c1cccc(-n2nc(C)c(Cl)c2C)c1)c1ccc2c(c1)OC(F)(F)O2 [compound 019, 3-(4-Chloro-3,5-dimethyl-pyrazol-1-yl)-N-(2,2-difluoro-1,3-benzodioxol-5-yl)-N-ethyl-benzamide]
< 1 | Cc1nn(-c2cccc(C(=O)N(C)c3ccc4c(c3)OCO4)c2)c(C)c1Cl [compound 015, N-(1,3-Benzodioxol-5-yl)-3-(4-chloro-3,5-dimethyl-pyrazol-1-yl)-N-methyl-benzamide]
< 1 | Cc1nc2ccc(NC(=O)c3cccc(-n4nc(C(F)(F)F)c(Cl)c4C)c3)cc2s1 [Int-148, 3-[4-Chloro-5-methyl-3-(trifluoromethyl)pyrazol-1-yl]-N-(2-methyl-1,3-benzothiazol-6-yl)benzamide]
> 2 | CN(C(=O)c1cccc(-n2cc(Cl)cn2)c1)c1ccc2c(c1)OCCO2 [compound 033, 3-(4-Chloropyrazol-1-yl)-N-(2,3-dihydro-1,4-benzodioxin-6-yl)-N-methyl-benzamide]
< 1 | Cc1c(C=O)c(C(F)(F)F)nn1-c1cccc(C(=O)N(C)c2ccc3c(c2)OCO3)c1 [compound 186, N-(1,3-Benzodioxol-5-yl)-3-[4-formyl-5-methyl-3-(trifluoromethyl)pyrazol-1-yl]-N-methyl-benzamide]
< 1 | Cc1nc2ccc(N(C)C(=O)c3cccc(-n4nc(C)c(Cl)c4C)c3)cc2o1 [compound 047, 3-(4-Chloro-3,5-dimethyl-pyrazol-1-yl)-N-methyl-N-(2-methyl-1,3-benzoxazol-6-yl)benzamide]
1 to 2 | Cc1c(Cl)c(C(F)(F)F)nn1-c1cccc(C(=O)N(C)c2cc3c(cc2C=O)OCO3)c1 [compound 161, 3-[4-chloro-5-methyl-3-(trifluoromethyl)pyrazol-1-yl]-N-(6-formyl-1,3-benzodioxol-5-yl)-N-methyl-benzamide]
< 1 | Cc1nc2cc(Cl)c(N(C)C(=O)c3cccc(-n4nc(C(F)(F)F)c(Cl)c4C4CC4)c3)cc2o1 [compound 139, 3-[4-Chloro-5-cyclopropyl-3-(trifluoromethyl)pyrazol-1-yl]-N-(5-chloro-2-methyl-1,3-benzoxazol-6-yl)-N-methyl-benzamide]
< 1 | CN(C(=O)c1cccc(-n2nc(C(F)(F)F)c(Cl)c2C2CC2)c1)c1ccc2c(c1)OCO2 [compound 111, N-(1,3-Benzodioxol-5-yl)-3-[4-chloro-5-cyclopropyl-3-(trifluoromethyl)pyrazol-1-yl]-N-methyl-benzamide]
< 1 | CCc1nc2ccc(N(C)C(=O)c3cccc(-n4nc(C)c(Cl)c4C)c3)cc2o1 [compound 076, 3-(4-Chloro-3,5-dimethyl-pyrazol-1-yl)-N-(2-ethyl-1,3-benzoxazol-6-yl)-N-methyl-benzamide]
< 1 | CN(C(=O)c1cccc(-n2nc(C(F)(F)F)c(Cl)c2COC2CC(C(=O)O)C2)c1)c1ccc2c(c1)OC(F)(F)O2 (stereo not drawn) [compound 257, 3-[[4-Chloro-2-[3-[(2,2-difluoro-1,3-benzodioxol-5-yl)-methyl-carbamoyl]phenyl]-5-(trifluoromethyl)pyrazol-3-yl]methoxy]cyclobutanecarboxylic acid]
< 1 | COC(=O)c1ccc(COc2c(Cl)c(C(F)(F)F)nn2-c2cccc(C(=O)N(C)c3ccc4c(c3)OCO4)c2)cc1 [compound 155, Methyl 4-[[2-[3-[1,3-benzodioxol-5-yl(methyl)carbamoyl]phenyl]-4-chloro-5-(trifluoromethyl)pyrazol-3-yl]oxymethyl]benzoate]
1 to 2 | Cc1cc(C(F)(F)F)nn1-c1cccc(C(=O)N(C)c2ccc3c(c2)OCO3)c1 [compound 091, N-(1,3-Benzodioxol-5-yl)-N-methyl-3-[5-methyl-3-(trifluoromethyl)pyrazol-1-yl]benzamide]
> 2 | Cc1c(Cl)c(CO)nn1-c1cccc(C(=O)N(C)c2ccc3c(c2)OCO3)c1 [compound 073, N-(1,3-Benzodioxol-5-yl)-3-[4-chloro-3-(hydroxylmethyl)-5-methyl-pyrazol-1-yl]-N-methyl-benzamide]
< 1 | CN(C(=O)c1cccc(-n2nc(C(F)(F)F)c(C#N)c2Oc2ccc(C(=O)OC(C)(C)C)cc2)c1)c1ccc2c(c1)OCO2 [compound 200, Tert-butyl 4-[2-[3-[1,3-benzodioxol-5-yl (methyl)carbamoyl]phenyl]-4-cyano-5-(trifluoromethyl)pyrazol-3-yl]oxybenzoate]
1 to 2 | Cc1nc2ncc(N(C)C(=O)c3cccc(-n4nc(C(F)(F)F)c(Cl)c4C)c3)cc2o1 [compound 261, 3-[4-Chloro-5-methyl-3-(trifluoromethyl)pyrazol-1-yl]-N-methyl-N-(2-methyloxazolo[4,5-b]pyridin-6-yl)benzamide]
< 1 | CN(C(=O)c1cccc(-n2nc(C(F)(F)F)c(C#N)c2COc2ccc(C(=O)OC(C)(C)C)cc2)c1)c1ccc2c(c1)OC(F)(F)O2 [compound 259, Tert-butyl 4-[[4-cyano-2-[3-[(2,2-difluoro-1,3-benzodioxol-5-yl)-methyl-carbamoyl]phenyl]-5-(trifluoromethyl)pyrazol-3-yl]methoxy]benzoate]
